In patent US20230219912A1, “HALOGENATED BENZOTHIADIAZINES FOR THE TREATMENT OF CANCER” (BOARD OF REGENTS OF THE UNIVERSITY OF NEBRASKA, priority 2020, published 2023):
Entries after “also recorded” stand apart in the source; their conditions may differ. Where two headings read alike, the source gives them in different places.

Tests used:
[1] = test system: 22Rv1 prostate cancer cells; assay: MTS cytotoxicity assay in 22Rv1 prostate cancer cells; details: for cytotoxicity at 100 µM: Homo sapiens, 22Rv1, 48 h, read-out: reduction of 22Rv1 cell viability
Procedure: The assay was performed as follows. To determine the cell growth inhibition ability of the synthesized compounds the (3-(4,5-dimethylthiazol-2-yl)-5-(3-carboxymethoxyphenyl)-2-(4-sulfophenyl)-2H-tetrazolium) (MTS) assay used according to the manufacturer's recommended protocol. Stock solutions of the synthesized compounds were prepared in DMSO. Cells were seeded at a density of 1×10^5 cells in 96-well plates. After 24 hours, cells were treated at the indicated concentrations of test compounds, limiting the final DMSO concentration to less than 1%. After incubation at 37° C. in an environment of 5% CO2 for 48-72 hours, 10 μL of MTS reagent (CellTiter 96© AQueous One Solution Reagent) was added to each well and incubated at the above mentioned conditions for 2-4 hr. Absorbance was recorded at 490 nm on a BioTek Synergy Mx multimode plate reader and the viability of cells were plotted as percentage of controls.

[2] = target: T1, Mitochondrial respiratory complex II (Rattus norvegicus, UniProt P21913+Q641Z9+Q6PCT8+Q920L2); assay: Mitochondrial respiratory complex II inhibition assay; format: biochemical; details: for inhibition at 100 µM: read-out: inhibition of CII; for IC50: isolated rat heart mitochondria, mean ±SD of n = 4, read-out: CII IC50
T1 construct: measured spectrophotometrically using isolated rat heart mitochondria; from tissue; host or cells: rat heart mitochondria / sub-mitochondrial particles
T1 sequence (Q920L2 35-656): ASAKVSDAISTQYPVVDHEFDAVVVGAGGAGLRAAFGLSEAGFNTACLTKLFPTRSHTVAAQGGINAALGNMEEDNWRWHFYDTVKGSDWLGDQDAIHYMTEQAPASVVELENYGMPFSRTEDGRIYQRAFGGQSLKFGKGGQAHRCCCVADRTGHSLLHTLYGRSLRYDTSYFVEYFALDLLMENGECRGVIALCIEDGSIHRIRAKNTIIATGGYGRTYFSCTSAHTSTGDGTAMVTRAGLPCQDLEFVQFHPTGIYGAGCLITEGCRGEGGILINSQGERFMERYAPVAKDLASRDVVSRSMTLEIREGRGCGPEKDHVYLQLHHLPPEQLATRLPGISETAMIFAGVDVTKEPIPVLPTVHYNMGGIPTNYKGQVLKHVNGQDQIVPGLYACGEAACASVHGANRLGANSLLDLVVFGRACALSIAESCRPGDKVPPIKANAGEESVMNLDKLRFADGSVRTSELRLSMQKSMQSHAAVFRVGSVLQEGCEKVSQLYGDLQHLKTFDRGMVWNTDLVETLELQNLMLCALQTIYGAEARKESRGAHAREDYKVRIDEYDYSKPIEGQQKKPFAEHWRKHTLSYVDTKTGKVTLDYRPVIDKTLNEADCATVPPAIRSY
T1 sequence (P21913 31-282): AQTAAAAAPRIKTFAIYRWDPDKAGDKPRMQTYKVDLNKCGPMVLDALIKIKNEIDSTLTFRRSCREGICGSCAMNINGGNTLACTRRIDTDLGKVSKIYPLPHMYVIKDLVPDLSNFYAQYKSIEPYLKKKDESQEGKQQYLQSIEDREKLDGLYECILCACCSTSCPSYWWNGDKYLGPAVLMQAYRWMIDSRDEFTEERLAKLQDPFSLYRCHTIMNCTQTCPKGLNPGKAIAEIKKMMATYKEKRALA
T1 sequence (Q641Z9 1-169): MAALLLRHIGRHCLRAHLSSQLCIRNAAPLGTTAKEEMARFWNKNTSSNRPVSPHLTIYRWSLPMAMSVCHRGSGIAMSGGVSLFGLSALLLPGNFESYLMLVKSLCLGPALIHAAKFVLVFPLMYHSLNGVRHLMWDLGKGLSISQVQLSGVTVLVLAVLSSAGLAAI
T1 sequence (Q6PCT8 57-159): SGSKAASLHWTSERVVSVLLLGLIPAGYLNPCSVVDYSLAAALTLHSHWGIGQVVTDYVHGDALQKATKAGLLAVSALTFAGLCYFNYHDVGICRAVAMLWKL
Procedure: The assay was performed as follows. Mitochondria were isolated either from fresh rat hearts or by differential centrifugation in sucrose-based buffer as previously described.^24 Complex II enzymatic activity was determined spectrophotometrically as the rate of succinate-driven, co-enzyme Q2-linked reduction of dichlorophenolindophenol (DCPIP).^49 Mitochondria or sub-mitochondrial particles were incubated in phosphate buffer (pH 7.4) containing 40 μM DCPIP, 1 mM KCN, 10 μM rotenone, and 50 μM co-enzyme Q2. The rate of reduction of DCPIP to DCPIPH2 was followed at […] (ε=21,000 M-1). Varying amounts of succinate and inhibitors were used to determine an IC50 value. At the end of each run thenoyltrifluoroacetone (1 mM) was added and the residual TTFA-insensitive rate subtracted.

[3] = test system: MDA-MB-468 triple negative breast cancer cells; assay: MTS cytotoxicity assay in MDA-MB-468 triple negative breast cancer cells; format: cell-based; details: for effect on MDA-MB 468 TNBC cell viability: 10, 50 and 100 μM for 24, 48 and 72 hours, MTS; for IC50: Homo sapiens, MDA-MB-468, 72 hours, mean ± SD n = 3
Procedure: The assay was performed as follows.
Derivatives were dosed at 10, 50 and 100 μM for 24, 48 and 72 hours and cell viability measured by MTS assay (FIG. 5).

[4] = test system: VEGF-induced proliferation of HUVEC cells; assay: VEGF-induced HUVEC proliferation, MTT assay; format: cell-based, human; details: for inhibition of VEGF-induced HUVEC proliferation (in words): 20 μM; for inhibition at 20 µM: Homo sapiens, read-out: % Inhibition of Proliferation
Procedure: The assay was performed as follows. Vascular endothelial growth factor (VEGF, Cat #SRP3182) was purchased from Sigma. […] Stock solutions of all compounds were prepared in DMSO and were serially diluted for cell culture treatment maintaining the final DMSO concentration at less than 1%. Cell proliferation of HUVECs was evaluated through the MTT (3-[4, 5-dimethylthiazol-2-yl]-2, 5-dimethyltetrazolium bromide) colorimetric assay, as previously described.^28 The HUVECs were seeded at a density of 10,000 cells/well in 24 well plates in serum-containing medium and cultured overnight. Cells were starved with 300 μL of assay media (0.1% BSA+0.1% FBS in basal medium) for 24 h. Then, cells were treated with 500 μL of assay medium (control group), VEGF (10 ng/mL, positive control group) or VEGF along with compounds (20 μM). After 48 h of culture, 50 μL of MTT stock (5 mg/mL in PBS) was added to each well and incubated for 2 h at 37° C. to allow the formation of dark blue formazan crystals in the metabolically active cells. The medium was removed, the cells were washed with PBS (pH 7.4), and 100 μL of acidified isopropanol (0.33 mL HCl in 100 mL isopropanol) was added to each well and incubated for 5 min with thorough agitation to solubilize the formazan crystals. An equal volume of the solution was transferred to a 96-well plate and the absorbance was immediately measured using a microplate reader at a wavelength of 570 nm.

[5] = 100 μM, relative to DMSO control
[6] = HUVEC, 48 h, 20 μM compound, VEGF 10 ng/mL, HUVEC, 48 h, relative to VEGF treated cells, mean ± SEM n = 3

| Structure (SMILES) | inhibition at 100 µM [2, 5] [%] | cytotoxicity at 100 µM [1] [%] | effect on MDA-MB 468 TNBC cell viability [3] | inhibition of VEGF-induced HUVEC proliferation (in words) ([4]; VEGF 10 ng/mL) | inhibition at 20 µM [4, 6] [%] | also measured |
| --- | --- | --- | --- | --- | --- | --- |
| O=S1(=O)NC(=S)Nc2ccc(F)cc21 [Compound 12a, 7-fluoro-3-thioxo-3,4-dihydro-2H-1,2,4-benzothiadiazine 1,1-dioxide] | – | – | no reduction of cell viability | no appreciable inhibition | 50 ± 35 | – |
| C=CCNC1=NS(=O)(=O)c2cc(F)ccc2N1 [Compound 32a, 3-(allylamino)-7-fluoro-4H-benzo[e][1,2,4]thiadiazine 1,1-dioxide] | 38 | 24 | – | – | – | – |
| COc1ccc(CNC2=NS(=O)(=O)c3ccccc3N2)cc1 [Compound 20d, 3-((4-methoxybenzyl)amino)-4H-benzo[e][1,2,4]thiadiazine 1,1-dioxide] | – | – | no reduction of cell viability | – | – | – |
| CC(C)C(C)NC1=NS(=O)(=O)c2cc(F)ccc2N1 (centres unmarked) [Compound 15a, 7-fluoro-3-((3-methylbutan-2-yl)amino)-4H-benzo[e][1,2,4]thiadiazine 1,1-dioxide] | – | – | substantially less active | no appreciable inhibition | 76 ± 18 | – |
| O=S1(=O)N=C(NCc2ccc(C(F)(F)F)cc2)Nc2ccc(Br)cc21 [Compound 25c, 7-bromo-3-((4-(trifluoromethyl)benzyl)amino)-4H-benzo[e][1,2,4]thiadiazine 1,1-dioxide] | – | 34 | – | – | – | – |
| O=S1(=O)N=C(NCCc2ccc(Cl)cc2)Nc2ccc(F)cc21 [Compound 37a, 3-((4-chlorophenethyl)amino)-7-fluoro-4H-benzo[e][1,2,4]thiadiazine 1,1-dioxide] | 34 | – | – | – | – | reduction of 22Rv1 cell viability ([1]; 100 μM, 48 hrs treatment, MTS): inactive |
| COc1ccc(CNC2=NS(=O)(=O)c3cc(Cl)ccc3N2)cc1 [Compound 56e, 7-Chloro-3-((4-methoxybenzyl)amino)-4H-benzo[e][1,2,4]thiadiazine 1,1-dioxide] | – | – | – | suppressed HUVEC proliferation; also recorded: enhanced activity | 91 ± 15 | IC50 [3]: 62.9 ± 4.2 µM |
| CC(C)NC1=NS(=O)(=O)c2ccccc2N1C [Compound 43d, 3-(isopropylamino)-4-methyl-4H-benzo[e][1,2,4]thiadiazine 1,1-dioxide] | – | – | no reduction of cell viability | – | – | – |
| O=S1(=O)NC(=S)Nc2cc(Cl)ccc21 [Compound 12b, 6-chloro-3-thioxo-3,4-dihydro-2H-1,2,4-benzothiadiazine 1,1-dioxide] | 81 | 12 | – | – | 0 | IC50 [2]: 11.9 µM |
| O=S1(=O)N=C(NCCc2ccccc2)Nc2ccc(Br)cc21 [Compound 18c, 7-bromo-3-(phenethylamino)-4H-benzo[e][1,2,4]thiadiazine 1,1-dioxide] | – | – | potent activity | – | – | inhibition at 20 µM ([4]; HUVEC, 48 h): 47 ± 24% |
| O=S1(=O)N=C(NC2CCCC2)Nc2cc(Cl)ccc21 [Compound 22b, 6-chloro-3-(cyclopentylamino)-4H-benzo[e][1,2,4]thiadiazine 1,1-dioxide] | – | ~35 | – | – | – | IC50 [3]: 148 ± 26.3 µM |
| Cc1ccc(CNC2=NS(=O)(=O)c3cc(Cl)ccc3N2)cc1 [Compound 61e, 7-Chloro-3-((4-methylbenzyl)amino)-4H-benzo[e][1,2,4]thiadiazine 1,1-dioxide] | – | – | – | suppressed HUVEC proliferation; also recorded: enhanced activity | 119 ± 10 | IC50 [3]: 43.1 µM |
| O=S1(=O)N=C(NCc2ccc(OC(F)(F)F)cc2)Nc2ccccc21 [Compound 30d, 3-((4-(trifluoromethoxy)benzyl)amino)-4H-benzo[e][1,2,4]thiadiazine 1,1-dioxide] | – | ~30 | – | – | – | – |
| O=S1(=O)NC(=S)Nc2ccc(Br)cc21 [Compound 12c, 7-bromo-3-thioxo-3,4-dihydro-2H-1,2,4-benzothiadiazine 1,1-dioxide] | 55 | 16 | – | – | – | IC50 [2]: 37 µM |
| CC(NC1=NS(=O)(=O)c2ccc(Cl)cc2N1)c1ccccc1 (centres unmarked) [Compound 24b, 6-chloro-3-((1-phenylethyl)amino)-4H-benzo[e][1,2,4]thiadiazine 1,1-dioxide] | 51 | 50 | – | – | 38 ± 33 | IC50 [2]: 89 µM |

Now from value to molecule, other results behind:

| inhibition at 100 µM [2, 5] [%] | Structure (SMILES) | cytotoxicity at 100 µM [1] [%] | effect on MDA-MB 468 TNBC cell viability [3] | inhibition of VEGF-induced HUVEC proliferation (in words) ([4]; VEGF 10 ng/mL) | inhibition at 20 µM [4, 6] [%] | also measured |
| --- | --- | --- | --- | --- | --- | --- |
| 55 | CC(NC1=NS(=O)(=O)c2cc(Br)ccc2N1)c1ccccc1 (centres unmarked) [Compound 24c, 7-bromo-3-((1-phenylethyl)amino)-4H-benzo[e][1,2,4]thiadiazine 1,1-dioxide] | 70 | – | – | – | IC50 [2]: 79.8 µM |
| 46 | O=S1(=O)N=C(NCCCc2ccccc2)Nc2ccc(Br)cc21 [Compound 23c, 7-bromo-3-((3-phenylpropyl)amino)-4H-benzo[e][1,2,4]thiadiazine 1,1-dioxide] | 42 | – | – | 24 ± 41 | inhibition of CII [2, 5]: 47% |
| 14 | O=S1(=O)N=C(NCCCc2ccccc2)Nc2ccc(F)cc21 [Compound 23a, 7-fluoro-3-((3-phenylpropyl)amino)-4H-benzo[e][1,2,4]thiadiazine 1,1-dioxide] | – | almost complete amelioration of cell viability | no appreciable inhibition | 0 | % Inhibition of Proliferation ([4]; 20 μM compound, VEGF 10 ng/mL, HUVEC, 48 h, relative to VEGF treated cells, mean ± SEM n = 3): inactive |
| 64 | COc1ccc(CNC2=NS(=O)(=O)c3cc(Br)ccc3N2)cc1 [Compound 20c, 7-bromo-3-((4-methoxybenzyl)amino)-4H-benzo[e][1,2,4]thiadiazine 1,1-dioxide] | 41 | potent activity | – | – | IC50 [2]: 79.7 µM |
| 22 | CC(NC1=NS(=O)(=O)c2cc(F)ccc2N1)c1ccccc1 (centres unmarked) [Compound 24a, 7-fluoro-3-((1-phenylethyl)amino)-4H-benzo[e][1,2,4]thiadiazine 1,1-dioxide] | 34 | – | – | – | – |
| 17 | O=S1(=O)N=C(NCCc2c[nH]c3ccccc23)Nc2ccc(F)cc21 [Compound 36a, 3-((2-(1H-indol-3-yl)ethyl)amino)-7-fluoro-4H-benzo[e][1,2,4]thiadiazine 1,1-dioxide] | 30 | almost complete amelioration of cell viability | no appreciable inhibition | 41 ± 26 | – |
| 37 | COc1ccccc1CNC1=NS(=O)(=O)c2cc(F)ccc2N1 [Compound 26a, 7-fluoro-3-((2-methoxybenzyl)amino)-4H-benzo[e][1,2,4]thiadiazine 1,1-dioxide] | – | almost complete amelioration of cell viability | no appreciable inhibition | 29 ± 33 | – |
